This is an account of results in ChEMBL document CHEMBL1129437, “New purines and purine analogs as modulators of multidrug resistance” (J Med Chem, 1996).

The test system of assay [1] is Mus musculus. Kind of assay: Ratio of survival time of mice treated with VCR (0.25 mg/kg ip)+modulator given at the optimal dose of 100 mg/kg po/survival time of mice treated with VCR alone. In kind it is functional.
The test system of assay [2] is P388.
Description: Percent of cell viability of P388/VCR-20 murine leukemia cells remaining after inoculation with the modulator alone
Assay [3] relates to KB.
Description: Percent of cell viability of KB-A1 human epidermoid carcinoma remaining after inoculation with the modulator alone
In assay [4] the test system is Mus musculus. Kind of assay: Ratio of survival time of mice treated with VCR (0.25 mg/kg ip)+modulator given at the optimal dose of 100 mg/kg po/survival time of mice treated with VCR alone. In kind it is functional.
Assay [5] concerns Mus musculus. The experiment in a line: Ratio of survival time of mice treated with VCR (0.25 mg/kg ip)+modulator given at the optimal dose of 50 mg/kg po/survival time of mice treated with VCR alone. In kind it is functional.
Assay [6] concerns Mus musculus. The experiment in a line: Ratio of survival time of mice treated with VCR (0.25 mg/kg ip)+modulator given at the optimal dose of 200 mg/kg po/survival time of mice treated with VCR alone. In kind it is functional.

Turning to `C=CCNc1nc(N2CCC(NCC3c4ccccc4CCc4cc(OC)c(OC)c(OC)c43)CC2)nc2c1ncn2CC=C` (stereo unspecified), the T/V in assay [1] is given as 1.16. In addition, the Viability in assay [2] was 96%; in assay [3] it was 86%.

Consider `C=CCNc1nc(N2CCC(NCC3c4ccccc4N(CCC)S(=O)(=O)c4ccccc43)CC2)nc2c1ncn2CC=C` (stereo unspecified), for which the T/V in assay [1] amounted to 1.21. Besides, the results for the Viability in assay [2] and in assay [3] were 96% and 145%, respectively.

In the case of `C=CCNc1nc(N2CCC(NCC3c4ccccc4N(C)S(=O)(=O)c4cc(Cl)ccc43)CC2)c2ncn(CC=C)c2n1` (stereo unspecified), the Viability in assay [2] came to 89%; in assay [3], 141%. Further, the T/V in assay [4] turned out to be 1.03.

Turning to `C=CCNc1nc(N2CCC(NCC3c4ccccc4COc4ccccc43)CC2)c2ncn(CC=C)c2n1` (stereo unspecified), the values for the Viability in assay [2] and in assay [3] were 91% and 110%, respectively.

For `C=CCNc1nc(N2CCC(NC3c4ccccc4N(C)S(=O)(=O)c4cc(Cl)ccc43)CC2)nc2c1ncn2CC=C` (stereo in doubt; 11), the T/V in assay [1] (100 mg/kg) was found to be 1.27. The Viability is reported as 146% in assay [2] and 60% in assay [3].

Regarding `C=CCNc1nc(N2CCC(NCC3c4ccccc4CCc4ccccc43)CC2)nc2c1ncn2CCC`, the T/V in assay [1] is on record as 1.31. In addition, the Viability in assay [2] is on record as 102%; in assay [3] it was 107%.

Take `C=CCNc1nc(N2CCC(NCC3Cc4ccccc4Cc4ccccc43)CC2)nc2c1ncn2CC=C` (stereo unspecified): the T/V in assay [1] worked out at 1.42. Besides, the results for the Viability in assay [2] and in assay [3] were 98% and 104%, respectively.

Consider `C=CCNc1nc(N2CCC(NCC3c4ccccc4CCc4ccccc43)CC2)nc2c1nnn2CC=C`, for which, in assay [1], the T/V is listed as 1.17. In addition, the Viability in assay [2] came out at 83%; in assay [3] it was 84%.

Regarding `C=CCNc1nc(N2CCC(NC3c4ccccc4N(C)S(=O)(=O)c4cc(Cl)ccc43)CC2)nc2c1ncn2CC=C` (stereo in doubt; 12), in assay [1] (100 mg/kg), the T/V amounted to 1.11. Further, the values for the Viability in assay [2] and in assay [3] were 135% and 64%, respectively.

Regarding `C=CCNc1nc(N2CCC(NC3c4ccccc4CCc4ccccc43)CC2)nc2c1ncn2CC=C`, the Viability in assay [2] and in assay [3] was 111% in each case.

As to `C=CCNc1nc(N2CCC(NCC3CCCCc4ccccc43)CC2)nc2c1ncn2CC=C` (stereo unspecified), the T/V in assay [5] is 1.2. Further, the figures for the Viability in assay [2] and in assay [3] were 123% and 122%, respectively.

Take `C=CCn1cnc2c(NCCC)nc(N3CCC(NCC4c5ccccc5CCc5ccccc54)CC3)nc21`: the T/V in assay [5] is on record as 1.38. Further, the Viability in assay [2] is given as 103%; in assay [3], 112%.

On to `C=CCNc1nc(N2CCC(NCC3c4ccccc4CCc4ccccc43)CC2)c2ncn(CC=C)c2n1`, for which the T/V in assay [1] came out at 1.19. Also, the values for the Viability in assay [2] and in assay [3] were 112% and 95%, respectively.

For `C=CCNc1nc(N2CCC(NCC3c4ccccc4COc4ccccc43)CC2)nc2c1ncn2CC=C` (stereo unspecified), the T/V in assay [1] amounted to 1.36. The Viability is listed as 95% in assay [2] and 108% in assay [3].

As for `C=CCNc1nc(N2CCN(C(c3ccc(F)cc3)c3ccc(F)cc3)CC2)nc2c1ncn2CC=C`, the Viability worked out at 99% in assay [2] and 103% in assay [3].

For the compound `C=CCNc1nc(N2CCC(NC3c4ccccc4CCc4ccccc43)CC2)c2ncn(CC=C)c2n1`, the Viability in assay [2] is given as 120%; in assay [3], 119%.

Regarding `CCCNc1nc(N2CCC(NCC3c4ccccc4CCc4ccccc43)CC2)nc2c1ncn2CCC`, the T/V in assay [1] came to 1.57. Besides, the Viability in assay [2] was determined as 98%; in assay [3], 127%.

For the compound `C=CCNc1nc(N2CCC(NCC3c4ccccc4CCc4ccccc43)CC2)nc2c1cnn2CC=C`, the T/V in assay [1] came out at 1.31. Also, the Viability in assay [2] worked out at 74%; in assay [3], 132%.

Consider `C=CCNc1nc(N2CCC(NCC3c4ccccc4CCc4cc(OC)ccc43)CC2)c2ncn(CC=C)c2n1` (stereo unspecified), for which the T/V in assay [1] worked out at 1.06. For the same compound, the Viability in assay [2] was found to be 131%; in assay [3], 91%.

For `C=CCNc1nc(N2CCC(NCc3cccc4ccccc34)CC2)c2ncn(CC=C)c2n1`, in assay [1], the T/V is on record as 1.31. Besides, the Viability is given as 104% in assay [2] and 106% in assay [3].

As for `C=CCNc1nc(N2CCC(NCC3c4ccccc4CCc4ccccc43)CC2)nc2c1ccn2CC=C`, the T/V in assay [1] came out at 1.24. Further, the Viability came to 126% in assay [2] and 86% in assay [3].

For the compound `C=CCNc1nc(N2CCC(NCC3c4ccccc4CCc4cc(OC)ccc43)CC2)nc2c1cnn2CC=C` (stereo unspecified), the T/V in assay [1] was 1.18. In addition, the figures for the Viability in assay [2] and in assay [3] were 90% and 103%, respectively.

With `C=CCNc1nc(N2CCC(NCC(c3ccccc3)c3ccccc3)CC2)nc2c1ncn2CC=C`, the T/V in assay [1] turned out to be 1.3. Moreover, the figures for the Viability in assay [2] and in assay [3] were 93% and 115%, respectively.

For the compound `C=CCNc1nc(N2CCC(NCC3c4ccccc4N(C)S(=O)(=O)c4cc(Cl)ccc43)CC2)nc2c1ncn2CC=C` (stereo unspecified), the T/V in assay [1] is reported as 1.13. Besides, the Viability in assay [2] was found to be 70%; in assay [3], 121%.

On to `C=CCNc1nc(N2CCC(NCC3c4ccccc4C=Cc4ccccc43)CC2)nc2c1ncn2CC=C`, for which the T/V in assay [5] worked out at 1.21. The Viability in assay [2] is given as 111%; in assay [3], 110%.

`C=CCNc1nc(NCC=C)nc(N2CCC(NCC(c3ccc(F)cc3)c3ccc(F)cc3)CC2)n1`: the Viability in assay [2] is recorded as 93%; in assay [3], 111%. Moreover, the T/V in assay [6] amounted to 1.19.

Consider `C=CCNc1nc(N2CCC(NCC3c4ccccc4CCc4cc(OC)ccc43)CC2)nc2c1ncn2CC=C` (stereo unspecified), for which the T/V in assay [1] came to 1.54. Besides, the values for the Viability in assay [2] and in assay [3] were 114% and 108%, respectively.

For the compound `C=CCNc1nc(N2CCC(NCC(c3ccc(F)cc3)c3ccc(F)cc3)CC2)nc2c1ncn2CC=C`, in assay [1], the T/V is 1.49. The Viability in assay [2] amounted to 95%; in assay [3], 120%.

Turning to `C=CCNc1nc(N2CCN(C(c3ccc(F)cc3)c3ccc(F)cc3)CC2)nc2ncn(CC=C)c12`, the values for the Viability in assay [2] and in assay [3] were 97% and 104%, respectively.

`C=CCn1ncc2c(NCCC)nc(N3CCC(NCC4c5ccccc5CCc5cc(OC)ccc54)CC3)nc21` (stereo unspecified): the T/V in assay [1] was found to be 1.3. Besides, the Viability in assay [2] is listed as 98%; in assay [3], 86%.

Take `C=CCNc1nc(N2CCC(NCC(c3ccccc3)(c3ccccc3)c3ccccc3)CC2)nc2c1ncn2CC=C`: the T/V in assay [1] is listed as 1.3. Also, the Viability in assay [2] is 119%; in assay [3], 127%.

In the case of `C=CCNc1nc(N2CCC(NCC3c4ccccc4C=Cc4ccccc43)CC2)c2ncn(CC=C)c2n1`, the T/V in assay [1] came to 1.17. Also, the Viability in assay [2] was 119%; in assay [3] it was 102%.

For `C=CCNc1nc(N2CCC(NCC(c3ccc(F)cc3)c3ccc(F)cc3)CC2)c2ncn(CC=C)c2n1`, the results for the Viability in assay [2] and in assay [3] were 108% and 106%, respectively.

In the case of `C=CCNc1nc(N2CCC(NCc3cccc4ccccc34)CC2)nc2c1ncn2CC=C`, the T/V in assay [1] was found to be 1.33. Moreover, the Viability in assay [2] was determined as 80%; in assay [3] it was 110%.

Turning to `C=CCNc1nc(N2CCN(C(c3ccc(F)cc3)c3ccc(F)cc3)CC2)c2ncn(CC=C)c2n1`, the figures for the Viability in assay [2] and in assay [3] were 98% and 73%, respectively.

As to `C=CCNc1nc(N2CCC(NCC3c4ccccc4NC(=O)c4ccccc43)CC2)nc2c1ncn2CC=C` (stereo unspecified), the T/V in assay [1] is reported as 1.13. For the same compound, the values for the Viability in assay [2] and in assay [3] were 106% and 126%, respectively.
